Experimental data from paper PMC12207590, “Substrate Specificity of the Organic Cation Transporters MATE1 and MATE2K and Functional Overlap with OCT1 and OCT2” (Journal of Medicinal Chemistry, 2025).
Read-outs that look alike come from different tables or passages of the source.

Tests used:
MATE1 = biological target: T1, MATE1 (Homo sapiens, UniProt Q96FL8); test: Uptake ratio in MATE1-overexpressing HEK293 cells vs empty vector (2.5 μM, 1 min, HPLC-MS/MS); format: cell-based
T1 sequence (Q96FL8 1-570): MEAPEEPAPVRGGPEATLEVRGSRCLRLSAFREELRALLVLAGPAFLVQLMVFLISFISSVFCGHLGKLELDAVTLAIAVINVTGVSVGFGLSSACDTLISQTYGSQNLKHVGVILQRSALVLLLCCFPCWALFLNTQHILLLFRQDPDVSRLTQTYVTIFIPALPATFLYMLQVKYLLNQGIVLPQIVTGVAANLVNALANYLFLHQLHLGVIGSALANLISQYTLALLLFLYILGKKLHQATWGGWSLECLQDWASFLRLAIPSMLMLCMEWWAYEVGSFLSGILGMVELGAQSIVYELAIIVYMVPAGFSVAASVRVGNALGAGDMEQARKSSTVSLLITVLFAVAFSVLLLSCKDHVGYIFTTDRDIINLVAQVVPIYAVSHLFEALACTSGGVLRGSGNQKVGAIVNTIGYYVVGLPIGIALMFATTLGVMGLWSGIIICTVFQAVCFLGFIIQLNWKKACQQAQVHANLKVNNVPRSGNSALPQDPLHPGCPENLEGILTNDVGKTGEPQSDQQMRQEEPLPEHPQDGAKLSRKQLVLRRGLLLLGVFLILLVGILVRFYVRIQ

MATE2K = MATE2K (Homo sapiens, UniProt Q86VL8); test: Uptake ratio in MATE2K-overexpressing HEK293 cells vs empty vector (2.5 μM, 1 min, HPLC-MS/MS); format: cell-based
Sequence of MATE2K (Q86VL8 1-566 isoform Q86VL8-3): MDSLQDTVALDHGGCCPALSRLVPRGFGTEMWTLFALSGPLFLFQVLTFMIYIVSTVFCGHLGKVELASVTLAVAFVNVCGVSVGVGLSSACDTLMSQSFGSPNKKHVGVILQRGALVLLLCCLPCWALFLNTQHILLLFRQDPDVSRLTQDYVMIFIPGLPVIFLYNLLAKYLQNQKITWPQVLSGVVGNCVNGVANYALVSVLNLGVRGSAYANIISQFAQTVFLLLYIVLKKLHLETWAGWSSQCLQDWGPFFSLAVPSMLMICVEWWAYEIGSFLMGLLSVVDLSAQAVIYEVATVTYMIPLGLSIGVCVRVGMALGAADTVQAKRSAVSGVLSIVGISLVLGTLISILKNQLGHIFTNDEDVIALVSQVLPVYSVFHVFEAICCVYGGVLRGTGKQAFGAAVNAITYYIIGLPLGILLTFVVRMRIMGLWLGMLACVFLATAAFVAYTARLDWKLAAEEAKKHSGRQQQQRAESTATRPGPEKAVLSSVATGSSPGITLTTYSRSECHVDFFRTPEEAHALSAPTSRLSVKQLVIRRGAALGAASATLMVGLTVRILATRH

[1] = fold uptake over empty vector, 2.5 μM, 1 min
[2] = mean ratio of uptake in MATE1-overexpressing HEK293 cells vs empty vector, 2.5 μM, 1 min
[3] = mean ratio of uptake in MATE2K-overexpressing HEK293 cells vs empty vector, 2.5 μM, 1 min
[4] = uptake ratio MATE1-overexpressing vs empty-vector HEK293 cells, 2.5 μM, 1 min, mean
[5] = uptake ratio MATE2K-overexpressing vs empty-vector HEK293 cells, 2.5 μM, 1 min, mean

## CNC[C@H](O)c1cccc(O)c1 [Phenylephrine (S), Phenylephrine]
MATE1; [1]
  MATE1 ratio: 12.74
MATE2K; [1]
  MATE2K ratio: 1.44

## CNCC[C@@H](Oc1ccccc1C)c1ccccc1 [Atomoxetine (S), Atomoxetine]
MATE1; [1]
  MATE1 ratio: 1.16
MATE1; [2]
  MATE1 (uptake ratio): 1.16
MATE2K; [1]
  MATE2K ratio: 1.03
MATE2K; [3]
  MATE2 (uptake ratio): 1.03

## COc1cc2c(cc1OC)-c1cc3ccc4c(c3c[n+]1CC2)OCO4 [Epiberberine]
MATE1
  MATE1 ratio: 12.54
MATE2K
  MATE2K ratio: 5.89

## COc1ccccc1OCCNCC(O)COc1cccc2[nH]c3ccccc3c12 [Carvedilol (S), Carvedilol]
MATE1; [1]
  MATE1 ratio: 1.19
MATE1; [2]
  MATE1 (uptake ratio): 1.19
MATE2K; [1]
  MATE2K ratio: 1.18
MATE2K; [3]
  MATE2 (uptake ratio): 1.18

## C[N+](C)(C)C[C@H](O)CC(=O)[O-] [Carnitine]
MATE1
  MATE1 (uptake ratio): 1.16
  MATE1 ratio: 1.16
MATE2K
  MATE2 (uptake ratio): 1.13
  MATE2K ratio: 1.13

## CCC(Cc1ccc2c(c1)OCO2)NC (stereo not shown) [2-Methylamino-1-(3,4-methylendioxyphenyl)butan]
MATE1
  MATE1 (uptake ratio): 1.35
  MATE1 ratio: 1.35
MATE2K
  MATE2 (uptake ratio): 1.24
  MATE2K ratio: 1.24

## COc1ccc2[nH]cc(C[C@H](N)C(=O)O)c2c1
MATE1; [1]
  MATE1 ratio: 0.89
MATE2K; [1]
  MATE2K ratio: 1.10

## COc1cc(CNC(=O)CCCC/C=C/C(C)C)ccc1O [Capsaicin]
MATE1; [1]
  MATE1 ratio: 1.18
MATE1; [2]
  MATE1 (uptake ratio): 1.18
MATE2K; [1]
  MATE2K ratio: 0.99
MATE2K; [3]
  MATE2 (uptake ratio): 0.99

## C[C@]12CC[C@@H]3c4ccc(OS(=O)(=O)O)cc4CC[C@H]3[C@@H]1CCC2=O [Estrone-3-sulfate]
MATE1; Table S1, 2.5 μM, 1 min
  MATE1 ratio in this study: 4.80
MATE1; [1]
  MATE1 ratio: 4.80
MATE1; organic anions tested
  substrate of MATE1: substrates of MATE1
MATE2K; Table S1, 2.5 μM, 1 min
  MATE2K ratio in this study: 2.08
MATE2K; [1]
  MATE2K ratio: 2.08

## CNCCc1c[nH]c2ccc(O)cc12 [N-Methylserotonin]
MATE1
  MATE1 ratio: 26.34
MATE2K
  MATE2K ratio: 8.85

## N=C(N)N1CCc2ccccc2C1 [Debrisoquine]
MATE1; Table S1, 2.5 μM, 1 min
  MATE1 ratio in this study: 8.16
MATE1; [1]
  MATE1 ratio: 8.16
MATE2K; Table S1, 2.5 μM, 1 min
  MATE2K ratio in this study: 5.05
MATE2K; [1]
  MATE2K ratio: 5.05

## N[C@@H]1C[C@H]1c1ccccc1 (racemic) [Tranylcypromine]
MATE1
  MATE1: 1.45
MATE2K
  MATE2: 1.98

## CN(C)CCc1c[nH]c2ccc(CS(=O)(=O)N3CCCC3)cc12 [Almotriptan]
MATE1; [1]
  MATE1 ratio: 4.40
MATE1; [2]
  MATE1 (uptake ratio): 4.4
MATE2K; [1]
  MATE2K ratio: 2.36
MATE2K; [3]
  MATE2 (uptake ratio): 2.36

## CC(C)N(CCC(C(N)=O)(c1ccccc1)c1ccccn1)C(C)C (stereo not shown) [Disopyramide]
MATE1; [1]
  MATE1 ratio: 1.26
MATE2K; [1]
  MATE2K ratio: 1.21

## OC(c1ccccc1)(c1ccccc1)C12CC[N+](CCOCc3ccccc3)(CC1)CC2 [Umeclidinium]
MATE1; [4]
  MATE1: 4.54
MATE2K; [5]
  MATE2: 1.67

## CN(C)CCc1c[nH]c2ccc(Cn3cncn3)cc12 [Rizatriptan]
MATE1; [1]
  MATE1 ratio: 6.63
MATE1; [4]
  MATE1: 6.63
MATE2K; [1]
  MATE2K ratio: 3.35
MATE2K; [5]
  MATE2: 3.35

## N=C(N)N1Cc2ccccc2C(O)C1 (stereo not shown) [4-Hydroxydebrisoquine]
MATE1; [1]
  MATE1 ratio: 9.59
MATE1; [2]
  MATE1 (uptake ratio): 9.59
MATE2K; [1]
  MATE2K ratio: 3.34
MATE2K; [3]
  MATE2 (uptake ratio): 3.34

## O=C(O[C@H]1C[N+]2(CCCOc3ccccc3)CCC1CC2)C(O)(c1cccs1)c1cccs1 [Aclidinium (S), Aclidinium]
MATE1; [1]
  MATE1 ratio: 5.36
MATE1; [2]
  MATE1 (uptake ratio): 5.36
MATE2K; [1]
  MATE2K ratio: 1.64
MATE2K; [3]
  MATE2 (uptake ratio): 1.64

## CC(C)(C)NCC(O)c1ccc(O)c(CO)c1 (stereo not shown) [Salbutamol]
MATE1; Table S1, 2.5 μM, 1 min
  MATE1 ratio in this study: 7.94
MATE1; [1]
  MATE1 ratio: 7.94
MATE1; [4]
  MATE1: 7.94
MATE2K; Table S1, 2.5 μM, 1 min
  MATE2K ratio in this study: 3.73
MATE2K; [1]
  MATE2K ratio: 3.73
MATE2K; [5]
  MATE2: 3.73

## O=C(NCC1CCCCN1)c1cc(OCC(F)(F)F)ccc1OCC(F)(F)F (stereo not shown) [Flecainide]
MATE1; [1]
  MATE1 ratio: 1.13
MATE2K; [1]
  MATE2K ratio: 1.19

## C1CCN2C[C@H]3C[C@H](CN4CCCC[C@@H]34)[C@H]2C1 [Sparteine (-), Sparteine]
MATE1
  MATE1: 2.12
  MATE1 ratio: 2.12
  MATE1 ratio in this study: 2.12
MATE2K
  MATE2: 1.66
  MATE2K ratio: 1.66
  MATE2K ratio in this study: 1.66

## CCOC(=O)c1ccc(OC(=O)CCCCCNC(=N)N)cc1 [Gabexate]
MATE1; [1]
  MATE1 ratio: 5.78
MATE2K; [1]
  MATE2K ratio: 4.18

## C=C[C@H]1CN2CC[C@H]1C[C@H]2[C@H](O)c1ccnc2ccccc12 [Cinchonidine]
MATE1
  MATE1 (uptake ratio): 1.16
  MATE1 ratio: 1.16
MATE2K
  MATE2 (uptake ratio): 1.14
  MATE2K ratio: 1.14
